{
  "source": "patent US20040077615A1",
  "about": "“Novel formulations for administering therapeutic lipophilic molecules” (priority 2000, published 2004)",
  "conditions": "subcutaneous 5 mg in sesame oil vs rectal 15 mg (Diastat); plasma over 8 hours; FIG. 1",
  "data": [
    {"smiles": "CN1C(=O)CN=C(c2ccccc2)c2cc(Cl)ccc21", "note": "[diazepam]", "values": [
      {"measurement": "rise of levels in blood, subcutaneous delivery compared with rectal delivery", "result": "rise more quickly than via rectal delivery"}
    ]}
  ]
}
